Where “and” joins values, the source holds several entries; their conditions need not be identical. Equal values may be shown once. Inconclusive results are not listed. *1 amine or outer side, *2 acyl side, *3 side chain or, on linkers, in order; H or OH if unused. Where a SMILES comes first, the peptide text is derived from it. Bridges are numbered along the chain shown (N, C = ends). Roman numbers before positions name the chains, in order. [ ]: non-standard residue; d: D form. Actinocin(9to1) = Cc1c2oc3c(C)ccc(C(=O)[*:1])c3nc-2c(C(=O)[*:2])c(N)c1=O; aThr = C[C@H](O)[C@H](N)C(=O)O; NMeV = CN[C@H](C(=O)O)C(C)C; Sar = CNCC(=O)O

For the assay, the system named is MX-1 breast xenograft, nude mice, tumor weight T/C. As to the kind of experiment: NCI In Vivo Anticancer Drug Screen. Data for tumor model Human Mammary Carcinoma MX-1 Xenograft (intrarenal inoculation) in NU/NU Swiss (nude) mice. Particulars: endpoint: mean tumor weight change, higher = larger tumour. The method, boiled down:
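Activity is given as a ratio, with each measurement in the compound-treated arm divided by the matching measurement in vehicle-dosed controls. Tumour size or survival serves as the measured parameter.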
Background: In xenograft studies the graft and the host belong to different species.

[1] abbreviates: dose: 100.0 mg/kg/injection, schedule: Q01DX010 (sc), vehicle: saline with Tween-80.
[2] abbreviates: dose: 600.0 mg/kg/injection, schedule: Q04DX003 (sc), vehicle: water.
Setting [3] is: dose: 150.0 mg/kg/injection, schedule: Q04DX003 (sc), vehicle: Klucel (hydroxypropylcellulose) (HPC).
Where [4] appears, read: dose: 300.0 mg/kg/injection, schedule: Q04DX003 (sc), vehicle: water.

On to `CN(C)C(=O)c1cccc(COc2ccc(N3C(N)=NC(N)=NC3(C)C)cc2Cl)c1`, for which the T/C is 104 % of control (dose: 6.25 mg/kg/injection, schedule: Q01DX010 (sc), vehicle: saline); 118 % of control (dose: 12.5 mg/kg/injection, schedule: Q01DX010 (sc), vehicle: saline); 49 % of control (dose: 25.0 mg/kg/injection, schedule: Q01DX010 (sc), vehicle: saline).

With `N[C@@H](Cc1ccc(N(CCCl)CCCl)cc1)C(=O)O`, the T/C is, setting by setting: (dose: 1.5 mg/kg/injection, schedule: Q04DX003 (sc), vehicle: suspension in saline) 23 % of control and 34 % of control; (dose: 2.0 mg/kg/injection, schedule: Q01DX010 (ip), vehicle: saline) -42 % of control and -36 % of control; (dose: 3.0 mg/kg/injection, schedule: Q04DX003 (sc), vehicle: suspension in saline) 4 % of control and 8 % of control; (dose: 3.33 mg/kg/injection, schedule: Q04DX003 (ip), vehicle: saline) -15 % of control; (dose: 3.33 mg/kg/injection, schedule: Q04DX003 (sc), vehicle: saline) 7 % of control; (dose: 4.0 mg/kg/injection, schedule: Q01DX010 (ip), vehicle: saline) -91 % of control. Moreover, the T/C (dose: 4.0 mg/kg/injection, schedule: Q01DX010 (sc), vehicle: suspension in saline) is -100 % of control; the T/C (dose: 6.0 mg/kg/injection, schedule: Q04DX003 (sc), vehicle: suspension in saline) is -72 % of control and -58 % of control; the T/C (dose: 6.65 mg/kg/injection, schedule: Q04DX003 (ip), vehicle: saline) was -87 % of control; the T/C (dose: 6.65 mg/kg/injection, schedule: Q04DX003 (sc), vehicle: saline) was -51 % of control; the T/C (dose: 12.0 mg/kg/injection, schedule: Q04DX003 (sc), vehicle: saline) is -100 % of control; the T/C (dose: 12.0 mg/kg/injection, schedule: Q04DX003 (sc), vehicle: suspension in saline) is -100 % of control.

On to `O=c1[nH]c(=O)n(C2OC(CO)C(O)C2O)cc1F` (stereo unspecified), for which the T/C (dose: 9.38 mg/kg/injection, schedule: Q01DX010 (sc), vehicle: saline) was 21 % of control.

With `CCN(CC)CCCC(C)Nc1c2ccc(Cl)cc2nc2ccc(OC)cc12` (stereo unspecified), the T/C was 158 % of control (dose: 50.0 mg/kg/injection, schedule: Q01DX010 (sc), vehicle: saline with Tween-80) and 110 % of control under setting [1].

For the molecule `Nc1ccn(C2OC(CO)C(O)C2O)c(=O)n1` (stereo unspecified), the T/C is 53 % of control (dose: 7.5 mg/kg/injection, schedule: Q01DX010 (sc), vehicle: water); 62 % of control (dose: 7.81 mg/kg/injection, schedule: Q01DX010 (sc), vehicle: water); 27 % of control (dose: 15.0 mg/kg/injection, schedule: Q01DX010 (sc), vehicle: water); 28 % of control and 30 % of control (dose: 15.63 mg/kg/injection, schedule: Q01DX010 (sc), vehicle: water); 18 % of control (dose: 30.0 mg/kg/injection, schedule: Q01DX010 (sc), vehicle: water); 9 % of control and 12 % of control (dose: 31.25 mg/kg/injection, schedule: Q01DX010 (sc), vehicle: water). Also, the T/C by setting is: (dose: 60.0 mg/kg/injection, schedule: Q01DX010 (sc), vehicle: water) 9 % of control; under setting [2], 41 % of control.

As to `CCN(CC)CCCNc1nccc2c(C)c3[nH]c4ccncc4c3cc12`, the T/C (dose: 5.0 mg/kg/injection, schedule: Q01DX010 (sc), vehicle: other) was 166 % of control and the T/C (dose: 10.0 mg/kg/injection, schedule: Q01DX010 (sc), vehicle: other) was 88 % of control.

Turning to `Cn1/c2cc/c1=C(\c1ccc(S(=O)(=O)O)cc1)c1ccc([n-]1)/C(c1ccc(S(=O)(=O)O)cc1)=c1/cc/c([nH]1)=C(\c1ccc(S(=O)(=O)O)cc1)c1ccc([n-]1)/C=2c1ccc(S(=O)(=O)O)cc1.O.O=S(=O)(O)C(F)(F)F.[Cu+2]`, the T/C is 54 % of control under setting [3] and 94 % of control (dose: 600.0 mg/kg/injection, schedule: Q04DX003 (sc), vehicle: Klucel (hydroxypropylcellulose) (HPC)).

On to `COc1cc(NCc2ccc3nc(N)nc(N)c3c2C)cc(OC)c1OC`, for which the T/C was 70 % of control (dose: 1.25 mg/kg/injection, schedule: Q01DX010 (sc), vehicle: sodium bicarbonate); 46 % of control (dose: 2.5 mg/kg/injection, schedule: Q01DX010 (sc), vehicle: sodium bicarbonate); 97 % of control (dose: 20.0 mg/kg/injection, schedule: Q01DX010 (sc), vehicle: sodium bicarbonate); 115 % of control (dose: 75.0 mg/kg/injection, schedule: Q04DX003 (sc), vehicle: water); 108 % of control (dose: 150.0 mg/kg/injection, schedule: Q04DX003 (sc), vehicle: water); 112 % of control under setting [4].

In the case of `Cc1c2oc3c(C)ccc(C(=O)N[C@@H]4C(=O)N[C@H](C(C)C)C(=O)N5CCC[C@H]5C(=O)N(C)CC(=O)N(C)[C@@H](C(C)C)C(=O)O[C@H]4C)c3nc-2c(C(=O)N[C@@H]2C(=O)N[C@H](C(C)C)C(=O)N3CCC[C@H]3C(=O)N(C)CC(=O)N(C)[C@@H](C(C)C)C(=O)O[C@H]2C)c(N)c1=O` (I: [aThr][dV]P[Sar][NMeV] / II: [aThr][dV]P[Sar][NMeV]; ester I:1-I:C, II:1-II:C; linker I:N-II:N via Actinocin(9to1)), the T/C is 34 % of control (dose: 0.25 mg/kg/injection, schedule: Q04DX003 (sc), vehicle: saline); 11 % of control (dose: 0.5 mg/kg/injection, schedule: Q04DX003 (sc), vehicle: saline); -46 % of control (dose: 1.0 mg/kg/injection, schedule: Q04DX003 (sc), vehicle: saline); 76 % of control (dose: 50.0 micrograms/kg/injection, schedule: Q01DX010 (sc), vehicle: saline); 23 % of control and 28 % of control and 33 % of control (dose: 100.0 micrograms/kg/injection, schedule: Q01DX010 (sc), vehicle: saline); 1 % of control and 18 % of control (dose: 200.0 micrograms/kg/injection, schedule: Q01DX010 (sc), vehicle: saline).

In the case of `C1CN2CCC1CC2`, the T/C runs as follows: (dose: 4.69 mg/kg/injection, schedule: Q04DX003 (sc), vehicle: saline with Tween-80) 112 % of control; (dose: 9.38 mg/kg/injection, schedule: Q04DX003 (sc), vehicle: saline with Tween-80) 93 % of control.

As for `[CH3][Sn]([CH3])([Cl])[c]1cc[c]([Sn]([CH3])([CH3])[Cl])cc1`, the T/C (dose: 1.25 mg/kg/injection, schedule: Q04DX003 (ip), vehicle: saline) was 98 % of control; the T/C (dose: 2.5 mg/kg/injection, schedule: Q04DX003 (ip), vehicle: saline) is 101 % of control; the T/C (dose: 5.0 mg/kg/injection, schedule: Q04DX003 (ip), vehicle: saline) is 89 % of control.

For the molecule `c1ccc2c(NCCCCCCCCNc3c4ccccc4nc4ccccc34)c3ccccc3nc2c1`, the T/C is 93 % of control (dose: 10.0 mg/kg/injection, schedule: Q01DX010 (sc), vehicle: Klucel (hydroxypropylcellulose) (HPC)); 16 % of control (dose: 20.0 mg/kg/injection, schedule: Q01DX010 (sc), vehicle: Klucel (hydroxypropylcellulose) (HPC)); 93 % of control (dose: 40.0 mg/kg/injection, schedule: Q01DX010 (sc), vehicle: Klucel (hydroxypropylcellulose) (HPC)); 58 % of control (dose: 80.0 mg/kg/injection, schedule: Q01DX010 (sc), vehicle: Klucel (hydroxypropylcellulose) (HPC)).

As for `O=c1[nH]c(=O)n(C2CC(O)C(CO)O2)cc1C(F)(F)F` (stereo unspecified), the T/C reads like this: (dose: 300.0 mg/kg/injection, schedule: Q04DX003 (sc), vehicle: saline) 77 % of control; (dose: 600.0 mg/kg/injection, schedule: Q04DX003 (sc), vehicle: saline) 72 % of control; (dose: 1200.0 mg/kg/injection, schedule: Q04DX003 (sc), vehicle: saline) 43 % of control; (dose: 2400.0 mg/kg/injection, schedule: Q04DX003 (sc), vehicle: saline) 29 % of control.

Take `O=C1C=CC(=O)N1c1ccc(Cl)cc1`: the T/C is, setting by setting: (dose: 37.5 mg/kg/injection, schedule: Q04DX003 (sc), vehicle: Klucel (hydroxypropylcellulose) (HPC)) 79 % of control; (dose: 75.0 mg/kg/injection, schedule: Q04DX003 (sc), vehicle: Klucel (hydroxypropylcellulose) (HPC)) 91 % of control; under setting [3], 85 % of control.

On to `CC1C=NNC1=O` (stereo unspecified), for which the T/C was 123 % of control under setting [1]; 62 % of control (dose: 400.0 mg/kg/injection, schedule: Q01DX010 (sc), vehicle: saline with Tween-80); 60 % of control (dose: 800.0 mg/kg/injection, schedule: Q01DX010 (sc), vehicle: saline with Tween-80).

On to `CCCCCNc1ncnc2c(C)[nH]nc12`, for which the T/C (dose: 75.0 mg/kg/injection, schedule: Q04DX003 (ip), vehicle: Klucel (hydroxypropylcellulose) (HPC)) is 80 % of control and the T/C (dose: 150.0 mg/kg/injection, schedule: Q04DX003 (ip), vehicle: Klucel (hydroxypropylcellulose) (HPC)) is 112 % of control.

`NC(=O)Oc1cccc(OC(N)=O)c1`: the T/C reads like this: under setting [4], 68 % of control; under setting [2], 101 % of control; (dose: 1200.0 mg/kg/injection, schedule: Q04DX003 (sc), vehicle: water) 53 % of control.

For the origin of these results see PubChem BioAssay AID296 (DTP/NCI, 2004).
